Test results: patent publication US7465842B2, “Enantioselective biotransformation for preparation of protein tyrosine kinase inhibitor intermediates” (Agouron Pharmaceuticals, Inc., priority 2004, dated 2008)

B1: Subtilisin Carlsberg (protease from Bacillus licheniformis): commercially available hydrolase of the enzyme screening kit (protein, UniProt P00780 106-379, looked up)
Subtilisin Carlsberg: AQTVPYGIPLIKADKVQAQGFKGANVKVAVLDTGIQASHPDLNVVGGASFVAGEAYNTDGNGHGTHVAGTVAALDNTTGVLGVAPSVSLYAVKVLNSSGSGSYSGIVSGIEWATTNGMDVINMSLGGASGSTAMKQAVDNAYAKGVVVVAAAGNSGSSGNTNTIGYPAKYDSVIAVGAVDSNSNRASFSSVGAELEVMAPGAGVYSTYPTNTYATLNGTSMASPHVAGAAALILSKHPNLSASQVRNRLSSTATYLGSSFYYGKGLINVEAAAQ

Experiments:
[1] = Solubility of the precursor in water; type: physicochemical
[2] = Enzyme screening: stereoselective hydrolysis (kinetic resolution) of racemic 1-(2,6-dichloro-3-fluorophenyl)ethyl acetate; type: biochemical; conditions: selective for hydrolysis of (S)-acetate; 5% substrate load, 100 mM potassium phosphate buffer pH 7.2
Experimental: For example, for stereoselective hydrolysis of esters by biocatalysts, a program (Ee2 software-University of Graz) can accurately calculate the E value if the enantiomeric excess (ee) of either the alcohol or the ester at one particular enzymatic conversion are known. The ee value can be obtained, for example, from Equation 1. The [S] and [R] data can be obtained, for example, by HPLC.
The resolution of 1-(2,6-dichloro-3-fluorophenyl)ethyl acetate was carried out as follows. A 96-well plate prepared as described above was thawed for 5 minutes. 80 μL of potassium phosphate buffer (0.1 M, pH 7.2) was then dispensed into the wells using a multi-channel pipette. 10 μL of the substrate stock solution (50 mg/mL acetonitrile) was then added to each well via a multi-channel pipette, and the 96 reactions were incubated at 30° C. and 750 rpm. The reactions were sampled after 16 hours by the transfer of 25 μL of the reaction mixture into a new 96-well plate, which was then quenched by the addition of 150 μL of acetonitrile. The 96-well plate was then centrifuged, and the organic supernatant transferred from each well into another 96-well plate. Sampled reactions were then sealed using a penetrable mat cover and transferred to an HPLC system for analysis. The same plate was used to analyze the samples for both reactivity and enantioselectivity using alternating columns on the HPLC simultaneously. […]

Row | Molecule | solubility [1] [µg/mL] | Reactivity [2]
1 | CC(=O)c1c(Cl)ccc(F)c1Cl [precursor, 1-(2,6-dichloro-3-fluorophenyl)ethanone] | < 2500 | –
2 | B1 | – | Low
